Test results from BigSolDB 2.1.

COc1ccc2nc(SCc3ncc(C)c(OC)c3C)[nH]c2c1
solubility (mole fraction)
Settings	in ethanol	in ethyl acetate
277.65 K	0.0029	0.0117
282.65 K	0.00371	0.0168
288.15 K	0.00483	0.0244
293.15 K	0.00614	0.0337
298.05 K	0.00773	0.0455
302.15 K	0.00935	0.0577
307.65 K	0.012	0.0781
313.15 K	0.0155	0.104
317.65 K	0.0189	0.129
322.15 K	0.0231	0.16
327.65 K	0.0293	0.203
333.15 K	0.0372	0.256
